Our source for the Ki values is BindingDB's records for doi:10.1016/j.bmc.2010.06.025 (Wayne State University, 2010).

The target in one assay is D(2) dopamine receptor (Rattus norvegicus, UniProt P61169). Kind of assay: Displacement of [3H]spiperone from rat D2 receptor expressed in HEK293 cells. (In general: Loss of bound radioactivity is the signal in a displacement assay; it reports binding, not function.)
The next assay has as its target D(3) dopamine receptor (Rattus norvegicus, UniProt P19020). As to the kind of experiment: Displacement of [3H]spiperone from rat D3 receptor expressed in HEK293 cells.

One may read the Ki as a dissociation constant, usually derived from enzyme kinetics or from competition with a known ligand. Lower therefore signals tighter binding.

Chain of D(2) dopamine receptor (P61169 whole entry): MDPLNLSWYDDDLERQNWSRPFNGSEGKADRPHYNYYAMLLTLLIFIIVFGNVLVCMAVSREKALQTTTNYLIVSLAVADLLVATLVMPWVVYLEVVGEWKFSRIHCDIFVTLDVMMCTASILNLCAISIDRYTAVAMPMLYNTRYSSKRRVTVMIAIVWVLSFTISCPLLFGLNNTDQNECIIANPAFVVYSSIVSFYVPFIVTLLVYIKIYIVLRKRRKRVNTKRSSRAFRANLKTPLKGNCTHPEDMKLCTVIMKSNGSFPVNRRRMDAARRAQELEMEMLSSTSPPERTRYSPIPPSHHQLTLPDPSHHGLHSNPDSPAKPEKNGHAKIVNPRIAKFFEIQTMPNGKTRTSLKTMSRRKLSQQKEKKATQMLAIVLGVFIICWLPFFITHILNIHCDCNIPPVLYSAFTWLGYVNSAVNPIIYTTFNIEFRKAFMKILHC
Chain of D(3) dopamine receptor (P19020 whole entry): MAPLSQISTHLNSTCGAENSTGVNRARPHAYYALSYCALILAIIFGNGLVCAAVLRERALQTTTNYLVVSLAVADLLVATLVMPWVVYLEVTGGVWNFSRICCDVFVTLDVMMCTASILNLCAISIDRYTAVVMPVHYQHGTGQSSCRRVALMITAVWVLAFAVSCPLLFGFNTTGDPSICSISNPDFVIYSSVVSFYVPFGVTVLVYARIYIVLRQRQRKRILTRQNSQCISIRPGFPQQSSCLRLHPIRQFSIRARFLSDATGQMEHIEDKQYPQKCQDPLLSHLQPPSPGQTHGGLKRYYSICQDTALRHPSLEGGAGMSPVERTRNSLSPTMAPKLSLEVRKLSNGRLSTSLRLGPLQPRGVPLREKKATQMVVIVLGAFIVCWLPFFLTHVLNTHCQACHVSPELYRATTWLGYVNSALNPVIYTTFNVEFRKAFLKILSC

With `CCCN(CCN1CCN(c2ccc(-c3ccncc3)cc2)CC1)C1CCc2ccc(O)cc2C1` (stereo not drawn) [(+)-7-(propyl(2-(4-(4-(pyridin-4-yl)-phenyl)piperazin-1-yl)ethyl)amino)-5,6,7,8-tetrahydronaphthalen-2-ol], the inhibition constant Ki amounted to 399 nM at D(2) dopamine receptor and 16.2 nM on D(3) dopamine receptor.
